Results from patent US11306092B2, “Amino indole compounds useful as TLR inhibitors” (BRISTOL-MYERS SQUIBB COMPANY, priority 2017, dated 2022).

Assays:
Assay type in all cases: cell-based
human TLR7 = target: T1, human TLR7 (Homo sapiens, UniProt Q9NYK1); test: TLR7 inhibition reporter assay (HEK-Blue SEAP reporter); details: HEK-Blue cells overexpressing human TLR7; gardiquimod 7.5 μM; 22 hour incubation
T1 construct: host or cells: HEK-Blue cells
T1 sequence (Q9NYK1 27-1049): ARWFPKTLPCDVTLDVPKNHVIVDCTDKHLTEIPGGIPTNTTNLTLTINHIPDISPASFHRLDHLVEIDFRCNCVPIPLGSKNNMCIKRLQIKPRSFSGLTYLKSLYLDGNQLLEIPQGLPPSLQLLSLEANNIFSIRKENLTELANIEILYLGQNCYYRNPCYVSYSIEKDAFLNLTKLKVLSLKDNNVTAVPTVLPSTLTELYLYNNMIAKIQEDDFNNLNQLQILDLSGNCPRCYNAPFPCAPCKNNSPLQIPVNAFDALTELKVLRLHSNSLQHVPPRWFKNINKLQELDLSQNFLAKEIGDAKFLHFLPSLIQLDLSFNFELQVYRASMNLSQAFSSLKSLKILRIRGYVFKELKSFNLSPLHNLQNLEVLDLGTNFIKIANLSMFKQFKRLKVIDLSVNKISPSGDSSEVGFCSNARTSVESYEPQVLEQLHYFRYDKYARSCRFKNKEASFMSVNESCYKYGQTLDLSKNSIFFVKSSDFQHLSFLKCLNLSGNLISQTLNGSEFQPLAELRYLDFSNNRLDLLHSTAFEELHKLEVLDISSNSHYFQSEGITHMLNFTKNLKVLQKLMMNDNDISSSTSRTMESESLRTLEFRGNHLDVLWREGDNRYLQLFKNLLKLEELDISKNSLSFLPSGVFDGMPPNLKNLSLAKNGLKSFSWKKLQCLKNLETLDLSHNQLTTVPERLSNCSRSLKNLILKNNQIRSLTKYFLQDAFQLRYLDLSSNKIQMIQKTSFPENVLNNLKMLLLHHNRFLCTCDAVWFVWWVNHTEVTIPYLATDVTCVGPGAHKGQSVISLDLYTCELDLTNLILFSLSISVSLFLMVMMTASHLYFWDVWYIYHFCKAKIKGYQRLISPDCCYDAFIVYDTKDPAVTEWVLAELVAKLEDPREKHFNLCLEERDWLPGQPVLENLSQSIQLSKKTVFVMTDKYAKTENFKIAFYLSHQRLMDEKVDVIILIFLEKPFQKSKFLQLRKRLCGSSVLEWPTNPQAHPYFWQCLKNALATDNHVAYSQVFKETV
How it was run: (§1)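 Compound treatment: 30 min, RT, 0.05 nM–50 μM final. Agonist: TLR7 gardiquimod 7.5 μM; TLR8 R848 15.9 μM; TLR9 ODN2006 5 nM. Incubation 22 h, 37 °C, 5% CO2. Readout SEAP, HEK-Blue Detection.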

human TLR8 = target: T2, human TLR8 (Homo sapiens, UniProt Q9NR97); test: TLR8 inhibition reporter assay (HEK-Blue SEAP reporter); details: HEK-Blue cells overexpressing human TLR8; R848 15.9 μM; 22 hour incubation
T2 construct: host or cells: HEK-Blue cells
T2 sequence (Q9NR97 27-1041): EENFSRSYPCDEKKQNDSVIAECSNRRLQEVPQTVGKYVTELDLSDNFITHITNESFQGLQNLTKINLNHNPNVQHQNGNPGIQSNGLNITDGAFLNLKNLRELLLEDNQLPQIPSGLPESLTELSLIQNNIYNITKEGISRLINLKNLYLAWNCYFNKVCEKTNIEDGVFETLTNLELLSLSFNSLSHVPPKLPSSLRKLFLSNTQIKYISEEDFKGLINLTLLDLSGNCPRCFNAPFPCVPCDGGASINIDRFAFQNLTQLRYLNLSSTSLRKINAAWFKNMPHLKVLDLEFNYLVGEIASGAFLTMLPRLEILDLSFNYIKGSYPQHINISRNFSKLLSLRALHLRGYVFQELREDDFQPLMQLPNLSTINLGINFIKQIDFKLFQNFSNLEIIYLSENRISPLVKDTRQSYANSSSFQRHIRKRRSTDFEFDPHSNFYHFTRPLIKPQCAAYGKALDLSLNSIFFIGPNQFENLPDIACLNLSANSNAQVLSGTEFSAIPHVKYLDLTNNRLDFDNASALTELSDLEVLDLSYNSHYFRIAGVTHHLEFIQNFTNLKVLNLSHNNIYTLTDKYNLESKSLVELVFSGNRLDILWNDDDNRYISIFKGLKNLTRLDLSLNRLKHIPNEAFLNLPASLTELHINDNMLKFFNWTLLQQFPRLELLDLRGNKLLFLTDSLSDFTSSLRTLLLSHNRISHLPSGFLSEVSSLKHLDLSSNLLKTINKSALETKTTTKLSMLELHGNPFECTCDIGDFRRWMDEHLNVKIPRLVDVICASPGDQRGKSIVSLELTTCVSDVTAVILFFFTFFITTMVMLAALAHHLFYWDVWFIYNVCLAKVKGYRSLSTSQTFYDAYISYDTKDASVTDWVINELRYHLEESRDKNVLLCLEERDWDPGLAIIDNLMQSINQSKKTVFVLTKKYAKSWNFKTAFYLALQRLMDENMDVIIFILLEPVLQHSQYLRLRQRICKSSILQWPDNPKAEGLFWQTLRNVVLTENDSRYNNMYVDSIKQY
How it was run: as §1

human TLR9 = target: T3, human TLR9 (Homo sapiens, UniProt Q9NR96); test: TLR9 inhibition reporter assay (HEK-Blue SEAP reporter); details: HEK-Blue cells overexpressing human TLR9; ODN2006 5 nM; 22 hour incubation
T3 construct: host or cells: HEK-Blue cells
T3 sequence (Q9NR96 26-1032): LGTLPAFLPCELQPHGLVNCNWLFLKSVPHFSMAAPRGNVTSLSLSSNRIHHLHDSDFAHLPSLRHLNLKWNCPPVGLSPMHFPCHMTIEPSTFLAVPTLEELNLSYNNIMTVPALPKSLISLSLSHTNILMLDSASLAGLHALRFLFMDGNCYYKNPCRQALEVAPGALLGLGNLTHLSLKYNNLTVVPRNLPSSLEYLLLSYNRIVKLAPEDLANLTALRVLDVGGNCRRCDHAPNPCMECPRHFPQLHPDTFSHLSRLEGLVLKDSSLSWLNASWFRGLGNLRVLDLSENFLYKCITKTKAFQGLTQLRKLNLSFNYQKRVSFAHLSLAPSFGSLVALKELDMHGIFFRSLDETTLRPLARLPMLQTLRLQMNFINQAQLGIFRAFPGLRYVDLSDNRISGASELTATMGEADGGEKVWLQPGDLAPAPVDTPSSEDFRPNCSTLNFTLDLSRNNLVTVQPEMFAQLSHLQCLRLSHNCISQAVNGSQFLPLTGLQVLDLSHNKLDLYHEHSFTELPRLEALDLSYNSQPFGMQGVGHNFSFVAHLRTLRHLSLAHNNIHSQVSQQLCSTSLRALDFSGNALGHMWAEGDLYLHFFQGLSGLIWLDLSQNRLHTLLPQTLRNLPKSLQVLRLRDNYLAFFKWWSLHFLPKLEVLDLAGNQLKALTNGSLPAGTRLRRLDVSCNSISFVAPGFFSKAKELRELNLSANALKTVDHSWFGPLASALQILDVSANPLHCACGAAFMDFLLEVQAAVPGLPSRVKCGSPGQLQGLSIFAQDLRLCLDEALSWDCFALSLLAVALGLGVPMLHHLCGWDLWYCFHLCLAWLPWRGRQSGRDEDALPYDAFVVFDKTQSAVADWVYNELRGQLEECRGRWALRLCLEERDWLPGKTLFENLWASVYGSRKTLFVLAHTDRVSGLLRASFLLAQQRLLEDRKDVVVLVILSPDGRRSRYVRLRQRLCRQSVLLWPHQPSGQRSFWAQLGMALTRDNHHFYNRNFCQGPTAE
How it was run: as §1

Row | Compound | IC50 (human TLR7) [nM] | IC50 (human TLR8) [nM] | IC50 (human TLR9) [nM]
1 | COc1ccc(-c2[nH]c3ccc(N4CCC(N(C)C)CC4)cc3c2C(C)C)cc1OC [Example 108, 1-(2-(3,4-dimethoxyphenyl)-3-isopropyl-1H-indol-5-yl)-N,N-dimethylpiperidin-4-amine] | 23 | 10 | 2530
2 | CCc1c(-c2ccnc(C)c2)[nH]c2ccc(N3CCN(C4CCN(C(C)C)CC4)CC3)cc12 [Example 147, 3-ethyl-5-(4-(1-isopropylpiperidin-4-yl)piperazin-1-yl)-2-(2-methylpyridin-4-yl)-1H-indole] | 4650 | 17900 | 227
3 | COc1ccc(-c2[nH]c3ccc(NC(=O)[C@H](N)CCC(N)=O)cc3c2C(C)C)cc1OC [Example 22, (R)-2-amino-N1-(2-(3,4-dimethoxyphenyl)-3-isopropyl-1H-indol-5-yl)pentanediamide] | 670 | 213 | 19300
4 | CCc1c(-c2ccnc(OC)c2)[nH]c2ccc(N3CCN(C4CCN(CC)CC4)CC3)cc12 [Example 148, 3-ethyl-5-(4-(1-ethylpiperidin-4-yl)piperazin-1-yl)-2-(2-methoxypyridin-4-yl)-1H-indole] | 96 | 32 | 446
5 | Cc1c(-c2ccnc3[nH]ccc23)[nH]c2ccc(N3CCN(C4CCN(C)CC4)CC3)cc12 [Example 141, 4-(3-methyl-5-(4-(1-methylpiperidin-4-yl)piperazin-1-yl)-1H-indol-2-yl)-1H-pyrrolo[2,3-b]pyridine] | 2170 | 1720 | 124
6 | CCc1c(-c2ccnc(OC)c2)[nH]c2ccc(N3CCN(C4CC(C)(C)NC(C)(C)C4)CC3)cc12 [Example 161, 3-ethyl-2-(2-methoxypyridin-4-yl)-5-(4-(2,2,6,6-tetramethylpiperidin-4-yl)piperazin-1-yl)-lH-indole] | 63 | 8.1 | 243
7 | COc1ccc(-c2[nH]c3ccc(N4CCC(CCN5CCCC5)CC4)cc3c2C(C)C)cc1OC [Example 115, 2-(3,4-dimethoxyphenyl)-3-isopropyl-5-(4-(2-(pyrrolidin-1-yl)ethyl)piperidin-1-yl)-1H-indole] | 31 | 61 | 621
8 | CCNCCOc1ccc(Nc2ccc3[nH]c(-c4ccc(OC)c(OC)c4)c(C(C)C)c3c2)cc1 [Example 105, 2-(3,4-dimethoxyphenyl)-N-(4-(2-(ethylamino)ethoxy)phenyl)-3-isopropyl-1H-indol-5-amine] | 1400 | 17 | 2260
9 | Cc1cc(-c2[nH]c3ccc(N4CCC(N(C)CCN)C4=O)cc3c2C(C)C)ccn1 (stereo not drawn) [Example 2, 3-((2-aminoethyl)(methyl)amino)-1-(3-isopropyl-2-(2-methylpyridin-4-yl)-1H-indol-5-yl)pyrrolidin-2-one] | 99 | 28 | 4970
10 | COc1ccc(-c2[nH]c3ccc(NC(=O)C4CNCCO4)cc3c2C(C)C)cc1OC (stereo not drawn) [Example 15, N-(2-(3,4-dimethoxyphenyl)-3-isopropyl-1H-indol-5-yl)morpholine-2-carboxamide] | 25 | 3.4 | 7460
11 | COc1ccc(-c2[nH]c3ccc(NC(=O)CCCN)cc3c2C(C)C)cc1OC [Example 12, 4-amino-N-(2-(3,4-dimethoxyphenyl)-3-isopropyl-1H-indol-5-yl)butanamide] | 202 | 37 | 5610
12 | COc1ccc(-c2[nH]c3ccc(NC4CCC(N(C)CCN(C)C)CC4)cc3c2C(C)C)cc1OC (stereo not drawn) [Example 35, N1-(2-(3,4-dimethoxyphenyl)-3-isopropyl-1H-indol-5-yl)-N4-(2-(dimethylamino)ethyl)-N4-methylcyclohexane-1,4-diamine] | 129 | 261 | 608
13 | CNCCNC1CCC(Nc2ccc3[nH]c(-c4ccc(OC)c(OC)c4)c(C(C)C)c3c2)CC1 (single isomer, unassigned) [Example 30, N1-(2-(3,4-dimethoxyphenyl)-3-isopropyl-1H-indol-5-yl)-N4-(2-(methylamino)ethyl)cyclohexane-1,4-diamine] | 434 | 234 | 281
14 | Cc1cc(-c2[nH]c3ccc(N4CCC(N5CCN(C(C)C)CC5)C4=O)cc3c2C(C)C)cc(C)n1 (single isomer, unassigned) [Example 6, 1-(2-(2,6-dimethylpyridin-4-yl)-3-isopropyl-1H-indol-5-yl)-3-(4-isopropylpiperazin-1-yl) pyrrolidin-2-one] | 3.9 | 4.9 | 1020
15 | CCc1c(-c2ccc(OC)c(OC)c2)[nH]c2ccc(N3CCN(C4CCN(C)CC4)CC3)cc12 [Example 154, 2-(3,4-dimethoxyphenyl)-3-ethyl-5-(4-(1-methylpiperidin-4-yl)piperazin-1-yl)-1H-indole] | 79 | 14 | 829
